Assay results as given in patent US8022206B2 (OSI Pharmaceuticals, LLC, priority 2008, dated 2011).

What was measured:
RON (human) = RON (human) (Homo sapiens, UniProt Q04912); assay: RON (human) AlphaScreen kinase assay, Km of ATP; type: biochemical; conditions: AlphaScreen, Km of ATP; read-out: RON biochemical IC50
In short: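 Reaction was started with enzyme and run 30 min at RT. PT66 donor/acceptor beads in an EDTA-containing Tris pH 7.5 buffer were then added, and the signal was read after 1 h.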

MET (human) = MET (human) (Homo sapiens, UniProt P08581); assay: MET (human) AlphaScreen kinase assay, Km of ATP; type: biochemical; conditions: AlphaScreen, Km of ATP; read-out: Met biochemical IC50
In short: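 Human MET at lot-optimised concentration in 50 mM Tris pH 7.4 buffer with 1 mM DTT, compound at 1% DMSO final; enzyme starts the reaction, 60 min at RT.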

Chain of RON (human) (Q04912 25-1400): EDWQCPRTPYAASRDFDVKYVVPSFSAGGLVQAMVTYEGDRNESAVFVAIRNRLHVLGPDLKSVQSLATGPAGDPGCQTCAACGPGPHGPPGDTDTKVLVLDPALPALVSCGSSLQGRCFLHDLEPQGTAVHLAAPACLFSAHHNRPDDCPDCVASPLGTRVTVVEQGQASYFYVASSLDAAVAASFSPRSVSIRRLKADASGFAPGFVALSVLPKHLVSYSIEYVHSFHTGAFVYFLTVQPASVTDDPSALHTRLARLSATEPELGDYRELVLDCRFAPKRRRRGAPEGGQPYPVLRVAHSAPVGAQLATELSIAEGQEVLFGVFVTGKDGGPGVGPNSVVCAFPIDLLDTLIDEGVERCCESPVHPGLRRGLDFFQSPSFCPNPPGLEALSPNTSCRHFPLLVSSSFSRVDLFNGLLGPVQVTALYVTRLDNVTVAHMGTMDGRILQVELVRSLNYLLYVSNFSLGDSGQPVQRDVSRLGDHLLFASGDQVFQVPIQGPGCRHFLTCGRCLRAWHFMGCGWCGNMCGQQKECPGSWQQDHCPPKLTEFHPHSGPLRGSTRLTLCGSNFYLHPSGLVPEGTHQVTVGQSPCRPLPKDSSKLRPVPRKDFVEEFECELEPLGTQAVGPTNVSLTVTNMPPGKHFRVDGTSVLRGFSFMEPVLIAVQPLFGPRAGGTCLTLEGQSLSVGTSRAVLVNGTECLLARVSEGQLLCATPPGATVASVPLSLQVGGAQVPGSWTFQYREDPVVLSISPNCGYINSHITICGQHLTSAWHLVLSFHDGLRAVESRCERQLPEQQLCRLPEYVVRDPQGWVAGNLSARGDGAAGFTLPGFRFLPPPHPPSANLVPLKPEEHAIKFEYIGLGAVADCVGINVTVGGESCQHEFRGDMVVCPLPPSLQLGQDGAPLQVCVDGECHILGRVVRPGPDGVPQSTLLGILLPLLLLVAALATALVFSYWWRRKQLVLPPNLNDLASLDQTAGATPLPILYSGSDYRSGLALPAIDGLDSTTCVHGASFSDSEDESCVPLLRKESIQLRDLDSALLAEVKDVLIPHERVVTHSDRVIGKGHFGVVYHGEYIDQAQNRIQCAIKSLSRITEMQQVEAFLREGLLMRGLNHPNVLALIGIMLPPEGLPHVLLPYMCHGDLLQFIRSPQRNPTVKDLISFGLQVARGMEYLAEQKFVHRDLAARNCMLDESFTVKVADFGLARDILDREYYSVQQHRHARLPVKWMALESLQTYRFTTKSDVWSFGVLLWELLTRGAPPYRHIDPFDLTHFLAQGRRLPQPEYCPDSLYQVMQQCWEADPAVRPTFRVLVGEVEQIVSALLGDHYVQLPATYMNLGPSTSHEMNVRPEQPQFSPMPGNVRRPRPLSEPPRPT
Chain of MET (human) (P08581 25-1390): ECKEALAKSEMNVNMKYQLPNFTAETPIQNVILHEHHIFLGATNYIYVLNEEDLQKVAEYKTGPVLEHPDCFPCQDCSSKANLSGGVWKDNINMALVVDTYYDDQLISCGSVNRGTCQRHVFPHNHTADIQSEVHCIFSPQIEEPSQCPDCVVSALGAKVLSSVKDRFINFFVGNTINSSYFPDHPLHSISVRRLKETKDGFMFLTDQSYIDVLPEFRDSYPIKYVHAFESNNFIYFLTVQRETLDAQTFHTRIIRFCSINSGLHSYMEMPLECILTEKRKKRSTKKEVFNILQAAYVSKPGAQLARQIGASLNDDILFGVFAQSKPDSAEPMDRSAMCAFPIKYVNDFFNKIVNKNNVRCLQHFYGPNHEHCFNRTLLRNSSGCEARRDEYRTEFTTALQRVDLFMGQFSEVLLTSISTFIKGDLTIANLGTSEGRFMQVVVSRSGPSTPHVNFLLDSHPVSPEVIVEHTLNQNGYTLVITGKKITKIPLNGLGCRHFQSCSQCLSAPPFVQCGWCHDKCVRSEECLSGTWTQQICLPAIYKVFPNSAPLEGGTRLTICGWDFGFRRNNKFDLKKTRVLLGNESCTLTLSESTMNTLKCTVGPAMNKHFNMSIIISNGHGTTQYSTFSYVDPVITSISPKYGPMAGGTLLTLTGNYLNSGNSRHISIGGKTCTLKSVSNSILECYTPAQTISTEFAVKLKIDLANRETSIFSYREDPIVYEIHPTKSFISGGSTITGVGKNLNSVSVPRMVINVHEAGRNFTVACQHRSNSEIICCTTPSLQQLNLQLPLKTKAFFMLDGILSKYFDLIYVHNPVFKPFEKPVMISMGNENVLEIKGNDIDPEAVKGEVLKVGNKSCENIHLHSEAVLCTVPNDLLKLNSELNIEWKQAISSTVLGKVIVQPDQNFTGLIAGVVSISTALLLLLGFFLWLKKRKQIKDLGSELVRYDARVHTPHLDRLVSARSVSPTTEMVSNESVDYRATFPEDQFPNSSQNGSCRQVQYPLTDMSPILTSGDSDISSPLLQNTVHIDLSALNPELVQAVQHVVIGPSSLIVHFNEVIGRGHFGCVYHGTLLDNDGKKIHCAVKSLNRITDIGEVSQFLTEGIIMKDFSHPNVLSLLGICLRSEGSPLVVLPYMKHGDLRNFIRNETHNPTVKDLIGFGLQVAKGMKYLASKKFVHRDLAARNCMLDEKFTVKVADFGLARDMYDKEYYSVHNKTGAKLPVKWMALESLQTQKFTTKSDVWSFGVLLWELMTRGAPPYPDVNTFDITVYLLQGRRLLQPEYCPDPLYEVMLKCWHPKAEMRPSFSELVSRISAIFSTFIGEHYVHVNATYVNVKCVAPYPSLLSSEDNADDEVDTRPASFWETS

| IC50 (RON (human)) [nM] | IC50 (MET (human)) [nM] | SMILES |
| --- | --- | --- |
| 500 to 5000 | 500 to 5000 | C[C@@H](Oc1c(N)ncc2c(-c3csc(C(=O)N(C)C)c3)coc12)c1c(Cl)ccc(F)c1Cl [Example 317, 4-{6-Amino-7-[(R)-1-(2,6-dichloro-3-fluorophenyl)ethoxy]furo[3,2-c]pyridin-3-yl}thiophene-2-carboxylic acid Dimethylamide] |
| 500 to 5000 | < 500 | Cc1oc2c(O[C@H](C)c3c(Cl)ccc(F)c3Cl)c(N)ncc2c1-c1cnn(C2CCNCC2)c1 [Example 168, 7-[(R)-1-(2,6-Dichloro-3-fluorophenyl)ethoxy]-2-methyl-3-(1-piperidin-4-yl-1H-pyrazol-4-yl)-furo[3,2-c]pyridin-6-ylamine] |
| 500 to 5000 | 500 to 5000 | CC(Oc1c(N)ncc2c(-c3cnn(C4CCNCC4)c3)coc12)c1ccc(OC(F)(F)F)cc1 (stereo not shown) [Example 355, 3-(1-Piperidin-4-yl-1H-pyrazol-4-yl)-7-[1-(4-trifluoromethoxy-phenyl)ethoxy]furo[3,2-c]pyridin-6-ylamine] |
| 5000 to 20000 | 500 to 5000 | C[C@@H](Oc1c(N)ncc2c(-c3cncc(C(=O)NC(C)(C)C)c3)coc12)c1c(Cl)ccc(F)c1Cl [Example 280, 5-{6-Amino-7-[(R)-1-(2,6-dichloro-3-fluorophenyl)ethoxy]furo[3,2-c]pyridin-3-yl}-N-tert-butylnicotinamide] |
| 5000 to 20000 | 500 to 5000 | C[C@@H](Oc1c(N)ncc2c(-c3cc(C(N)=O)cs3)coc12)c1c(Cl)ccc(F)c1Cl [Example 326, 5-{6-Amino-7-[(R)-1-(2,6-dichloro-3-fluorophenyl)ethoxy]furo[3,2-c]pyridin-3-yl}thiophene-3-carboxamide] |
| < 500 | < 500 | C[C@@H](Oc1c(N)ncc2c(-c3csc(CN4CCC(O)C4)c3)coc12)c1c(Cl)ccc(F)c1Cl (stereo partly drawn) [Example 307, 1-(4-{6-Amino-7-[(R)-1-(2,6-dichloro-3-fluorophenyl)-ethoxy]furo[3,2-c]pyridin-3-yl}thiophen-2-ylmethyl)pyrrolidin-3-ol] |
| 500 to 5000 | < 500 | CCC(Oc1c(N)ncc2c(-c3cnn(C4CCNCC4)c3)coc12)c1c(Cl)cccc1Cl (stereo not shown) [Example 340, 7-[1-(2,6-Dichlorophenyl)propoxy]-3-(1-piperidin-4-yl-1H-pyrazol-4-yl)furo[3,2-c]pyridin-6-ylamine] |
| < 500 | < 500 | CC(Oc1c(N)ncc2c(-c3cnn(C4CCNCC4)c3)coc12)c1c(Cl)cccc1Br (stereo not shown) [Example 361, 7-[1-(2-Bromo-6-chlorophenyl)ethoxy]-3-(1-piperidin-4-yl-1H-pyrazol-4-yl)furo[3,2-c]pyridin-6-ylamine] |
| 500 to 5000 | 500 to 5000 | CC(Oc1c(N)ncc2c(-c3cnn(C4CCNCC4)c3)coc12)c1ccc(F)cc1 (stereo not shown) [Example 376, 7-[1-(4-Fluorophenyl)ethoxy]-3-(1-piperidin-4-yl-1H-pyrazol-4-yl)furo[3,2-c]pyridin-6-ylamine] |
| 500 to 5000 | 500 to 5000 | COc1ccc(-c2coc3c(O[C@H](C)c4c(Cl)ccc(F)c4Cl)c(N)ncc23)cc1 [Example 69, 7-[(R)-1-(2,6-Dichloro-3-fluorophenyl)ethoxy]-3-(4-methoxyphenyl)-furo[3,2-c]pyridin-6-ylamine] |
| 500 to 5000 | < 500 | C[C@@H](Oc1c(N)ncc2c(C(=O)NCC3CCN(C)CC3)coc12)c1c(Cl)ccc(F)c1Cl [Example 185, 6-Amino-7-[(R)-1-(2,6-dichloro-3-fluorophenyl)ethoxy]furo[3,2-c]pyridine-3-carboxylic acid (1-methylpiperidin-4-ylmethyl)amide] |
| 500 to 5000 | < 500 | CC(Oc1c(N)ncc2c(-c3cnn(C4CCNCC4)c3)coc12)c1c(Cl)cccc1C(F)(F)F (stereo not shown) [Example 365, 7-[1-(2-Chloro-6-trifluoromethylphenyl)ethoxy]-3-(1-piperidin-4-yl-1H-pyrazol-4-yl)furo[3,2-c]pyridin-6-ylamine] |
| 500 to 5000 | 500 to 5000 | COc1cccc(C(C)Oc2c(N)ncc3c(-c4cnn(C5CCNCC5)c4)coc23)c1 (stereo not shown) [Example 345, 7-[1-(3-Methoxyphenyl)-ethoxy]-3-(1-piperidin-4-yl-1H-pyrazol-4-yl)furo[3,2-c]pyridin-6-ylamine] |
| < 500 | < 500 | C[C@@H](Oc1c(N)ncc2c(-c3cnn([C@@H]4CCNC4)c3)coc12)c1c(Cl)ccc(F)c1Cl [Example 162, 7-[(1R)-1-(2,6-dichloro-3-fluorophenyl)ethoxy]-3-{1-[(3R)-pyrrolidin-3-yl]-1H-pyrazol-4-yl}furo[3,2-c]pyridin-6-amine] |
| 500 to 5000 | 500 to 5000 | C[C@H](Oc1c(N)ncc2c(-c3cnn(C4CCNCC4)c3)coc12)c1ccccn1 [Example 395, 3-(1-Piperidin-4-yl-1H-pyrazol-4-yl)-7-((S)-1-pyridin-2-yl-ethoxy)furo[3,2-c]pyridin-6-ylamine] |
| 500 to 5000 | < 500 | C[C@@H](Oc1c(N)ncc2c(-c3ccc(C(=O)NCCN4CCCCC4)cc3)coc12)c1c(Cl)ccc(F)c1Cl [Example 103, 4-{6-Amino-7-[(R)-1-(2,6-dichloro-3-fluorophenyl)ethoxy]furo[3,2-c]pyridin-3-yl}-N-(2-piperidin-1-ylethyl)benzamide] |
| < 500 | < 500 | C[C@@H](Oc1c(N)ncc2c(C3=CCN(C(=O)CCCN(C)C)CC3)coc12)c1c(Cl)ccc(F)c1Cl [Example 20, 1-(4-{6-Amino-7-[(R)-1-(2,6-dichloro-3-fluorophenyl)-ethoxy]-furo[3,2-c]pyridin-3-yl}-3,6-dihydro-2H-pyridin-1-yl)-4-dimethylaminobutan-1-one] |
| < 500 | < 500 | CC(Cc1ccccc1)Oc1c(N)ncc2c(-c3cnn(C4CCNCC4)c3)coc12 (stereo not shown) [Example 405, 7-(1-Methyl-2-phenylethoxy)-3-(1-piperidin-4-yl-1H-pyrazol-4-yl)furo[3,2-c]pyridin-6-ylamine] |
| 500 to 5000 | < 500 | CCC(=O)N1CC=C(c2coc3c(O[C@H](C)c4c(Cl)ccc(F)c4Cl)c(N)ncc23)CC1 [Example 14, 1-(4-{6-Amino-7-[(R)-1-(2,6-dichloro-3-fluorophenyl)-ethoxy]-furo[3,2-c]pyridin-3-yl}-3,6-dihydro-2H-pyridin-1-yl)-propan-1-one] |
| < 500 | < 500 | C[C@@H](Oc1c(N)ncc2c(-c3cnn([C@H]4CCNC4)c3)coc12)c1c(Cl)ccc(F)c1Cl [Example 161, 7-[(1R)-1-(2,6-dichloro-3-fluorophenyl)ethoxy]-3-{1-[(3S)-pyrrolidin-3-yl]-1H-pyrazol-4-yl}furo[3,2-c]pyridin-6-amine] |
| > 20000 | 500 to 5000 | C[C@@H](Oc1c(N)ncc2ccoc12)c1nnc2ccc(-c3cnn(C)c3)nn12 [Example 470, 7-{(1R)-1-[6-(1-methyl-1H-pyrazol-4-yl) [1,2,4]triazolo[4,3-b]pyridazin-3-yl]ethoxy}furo[3,2-c]pyridin-6-amine] |
| < 500 | < 500 | C[C@@H](Oc1c(N)ncc2c(C3=CCN(C(=O)[C@H](N)c4ccccc4)CC3)coc12)c1c(Cl)ccc(F)c1Cl [Example 262, (2R)-2-Amino-1-[4-{6-amino-7-[(1R)-1-(2,6-dichloro-3-fluoro-phenyl)ethoxy]furo[3,2-c]pyridin-3-yl}-3,6-dihydropyridin-1(2H)-yl]-2-phenylethanone] |
| 500 to 5000 | 500 to 5000 | C[C@@H](Oc1c(N)ncc2c(C3=CCN(/C(N)=N\C#N)CC3)coc12)c1c(Cl)ccc(F)c1Cl [Example 197, 4-{6-Amino-7-[(R)-1-(2,6-dichloro-3-fluorophenyl)ethoxy]-furo[3,2-c]pyridin-3-yl}-N-cyano-3,6-dihydro-2H-pyridine-1-carboxamidine] |
| < 500 | < 500 | C[C@H](N)C(=O)N1CC=C(c2coc3c(O[C@H](C)c4c(Cl)ccc(F)c4Cl)c(N)ncc23)CC1 [Example 251, (2S)-2-Amino-1-[4-{6-amino-7-[(1R)-1-(2,6-dichloro-3-fluoro-phenyl)ethoxy]furo[3,2-c]pyridin-3-yl}-3,6-dihydropyridin-1(2H)-yl]propan-1-one] |
| 500 to 5000 | 500 to 5000 | C[C@@H](Oc1c(N)ncc2c(C3=CCN(C(=O)c4cnn[nH]4)CC3)coc12)c1c(Cl)ccc(F)c1Cl [Example 230, (4-{6-Amino-7-[(R)-1-(2,6-dichloro-3-fluorophenyl)ethoxy]-furo[3,2-c]pyridin-3-yl}-3,6-dihydro-2H-pyridin-1-yl)-(3H-[1,2,3]triazol-4-yl)-methanone] |
| 500 to 5000 | < 500 | C[C@@H](Oc1c(N)ncc2c(-c3csc(C(=O)O)c3)coc12)c1c(Cl)ccc(F)c1Cl [Example 311, 4-{6-Amino-7-[(R)-1-(2,6-dichloro-3-fluorophenyl)ethoxy]furo[3,2-c]pyridin-3-yl}thiophene-2-carboxylic acid] |

| SMILES | IC50 (RON (human)) [nM] | IC50 (MET (human)) [nM] |
| --- | --- | --- |
| CCN1CC=C(c2coc3c(O[C@H](C)c4c(Cl)ccc(F)c4Cl)c(N)ncc23)CC1 [Example 40, 7-[(R)-1-(2,6-Dichloro-3-fluorophenyl)-ethoxy]-3-(1-ethyl-1,2,3,6-tetrahydropyridin-4-yl)-furo[3,2-c]pyridin-6-ylamine] | < 500 | < 500 |
| CNC(=O)CN1CC=C(c2coc3c(O[C@H](C)c4c(Cl)ccc(F)c4Cl)c(N)ncc23)CC1 [Example 201, 2-(4-{6-Amino-7-[(R)-1-(2,6-dichloro-3-fluorophenyl)ethoxy]-furo[3,2-c]pyridin-3-yl}-3,6-dihydro-2H-pyridin-1-yl)-N-methylacetamide] | 500 to 5000 | < 500 |
| C[C@@H](Oc1c(N)ncc2c(C3=CC4CCC(C3)N4C)coc12)c1c(Cl)ccc(F)c1Cl (stereo partly drawn) [Example 164, 7-[(1R)-1-(2,6-Dichloro-3-fluorophenyl)ethoxy]-3-(8-methyl-8-azabicyclo[3.2.1]oct-2-en-3-yl)furo[3,2-c]pyridin-6-amine] | < 500 | < 500 |
